These results are taken from PubChem BioAssay AID651659 (Broad Institute, 2012).

Active and inactive are the calls of the source.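 Rule for the calls: active = signal drops, with AC50 within twice each sample's top valid tested dose; inconclusive = flat curve at 30 to 70% inhibition, or poor fit; inactive = signal moves against the expected drop, plus the rest.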 A value given as a limit tells only on which side of the number the result lay.

In one assay the target is Mitogen-activated protein kinase 3 (Homo sapiens) (UniProt P27361). In words: ERK1 kinase inhibitors, dose response, selectivity assay for Dyrk1A inhibitor NFAT project, biochemical, ADP-Glo luminescence, dry powder, set 2 (AID 651659). Conditions: 120 min. On the technique in general: ADP-Glo first removes unused ATP, then detects ADP through luciferase.
Sequence of Mitogen-activated protein kinase 3 (Homo sapiens) (P27361 whole entry, looked up): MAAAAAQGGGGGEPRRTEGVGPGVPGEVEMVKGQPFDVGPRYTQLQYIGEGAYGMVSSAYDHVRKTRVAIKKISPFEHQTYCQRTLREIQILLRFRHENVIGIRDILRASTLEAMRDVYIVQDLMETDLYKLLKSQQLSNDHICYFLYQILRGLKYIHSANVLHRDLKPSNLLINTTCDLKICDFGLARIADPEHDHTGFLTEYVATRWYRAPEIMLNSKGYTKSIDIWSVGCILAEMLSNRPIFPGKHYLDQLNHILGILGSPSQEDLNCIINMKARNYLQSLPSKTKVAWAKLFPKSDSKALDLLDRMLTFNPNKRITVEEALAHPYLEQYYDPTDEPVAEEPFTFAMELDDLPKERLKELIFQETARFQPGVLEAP
As to `CN(CC(=O)Nc1nc2ccc(F)cc2s1)S(=O)(=O)c1ccc(Cl)cc1`, the AC50 is > 20 µM (inactive).
Regarding `CN(CC(=O)Nc1nc2ccc(Cl)cc2s1)S(=O)(=O)c1ccc(C#N)cc1`, the AC50 is 5.91 µM.
As to `COc1ccc(-c2csc(NC(=O)CSCC(=O)N3CCCC3)n2)cc1`, the AC50 was > 20 µM (inactive).

The assay is the same for the next values; noted with them: 120 min, at 1.1 µM (top of the series).
Consider `CC(C)n1cnc2cc(NCc3cccc4ccccc34)ccc21`, for which the “activity change, negative = inhibition” value is “inactive”.

Still in this assay, the particulars now being: 120 min, at 10 µM (top of the series).
Regarding `Cc1sc(NC(=O)CSCc2ccccc2)nc1-c1ccccc1`, the “activity change, negative = inhibition” value is “inactive”.
Same read-out and setting: next, `COc1ccc(S(=O)(=O)N2CCCC(C(=O)Nc3nc4ccccc4s3)C2)cc1` (stereo not given): “inactive”; `COc1ccc2nc(NC(=O)C3CCN(S(=O)(=O)c4cccc5nonc45)CC3)sc2c1`: “inactive”.
Consider `Cc1csc(NC(=O)C2CCCN(S(=O)(=O)c3cccc4nonc34)C2)n1` (stereo not given), for which the “activity change, negative = inhibition” value was “inactive”.
On the same count and under the same terms, with `CN(CC(=O)Nc1nc2ccccc2s1)S(=O)(=O)c1ccc(Cl)cc1` the entry was “inactive”; with `COc1ccc2nc(NC(=O)C3CCCN(S(=O)(=O)c4cccc5nsnc45)C3)sc2c1` (stereo not given), “inactive”; with `CCCCN(c1nc2ccccc2s1)S(=O)(=O)c1ccc(Cl)cc1`, “inactive”.
Consider `COc1ccc(OC)c(C2=Nn3c(nnc3-c3ccccn3)SC2)c1`, for which the “activity change, negative = inhibition” value is “inactive”.
Take `COc1ccc2c(Cl)c(C(N)=O)sc2c1`: the “activity change, negative = inhibition” value was “inactive”.
The same measure, in the same setting: with `O=C(NCc1ccccc1)c1sc2ccccc2c1Cl` the entry was “inactive”; with `COc1ccc(NC(=O)C2CCCN(S(=O)(=O)c3cccc4nonc34)C2)cc1` (stereo not given), “inactive”; with `Cc1ccccc1S(=O)(=O)Cc1ccc(C(=O)NC(C)c2ccc3c(c2)OCCO3)o1` (stereo not given), “inactive”.
Still for that read-out and setting: with `COc1ccc2c(c1)[nH]c1c(C)nccc12` the entry was “inactive”; with `COc1ccc(OC)c(C2=Nn3c(nnc3-c3ccccc3)SC2)c1`, “inactive”; with `COc1ccc(CNC(=O)c2sc3ccccc3c2Cl)cc1`, “inactive”.
The same measure, in the same setting: next, `CN(CC(=O)Nc1nc2ccccc2s1)S(=O)(=O)c1ccccc1`: “inactive”; `COc1ccc(OC)c(C2=Nn3c(nnc3-c3ccncc3)SC2)c1`: “inactive”.
For the molecule `COc1ccc2nc(NC(=O)C3CCN(S(=O)(=O)c4cccc5nsnc45)CC3)sc2c1`, the “activity change, negative = inhibition” value was “inactive”.
Same read-out and setting: with `COc1ccc2c(Cl)c(C(=O)NC(C)C)sc2c1` the entry was “inactive”; with `COc1ccc2nc(NC(=O)C3CCCN(S(=O)(=O)c4cccc5cccnc45)C3)sc2c1` (stereo not given), “inactive”; with `Cc1ccc(S(=O)(=O)N(C)CC(=O)Nc2nc3ccccc3s2)cc1`, “inactive”.
Still for that read-out and setting: next, `COc1ccc(C2=Nn3c(nnc3-c3cccnc3)SC2)cc1`: “inactive”; `O=C(NCc1ccco1)c1sc2ccccc2c1Cl`: “inactive”.
`Cc1cccc2sc(NC(=O)CN(C)S(=O)(=O)c3ccc(Cl)cc3)nc12`: the “activity change, negative = inhibition” value is “inactive”.
Still for that read-out and setting: with `COc1cccc(C2=Nn3c(nnc3-c3ccccc3)SC2)c1` the entry was “inactive”; with `C=CCn1cnc2scc(-c3ccc(OC)cc3)c2c1=O`, “inactive”; with `CN(CC(=O)Nc1nccs1)S(=O)(=O)c1ccc(Cl)cc1`, “inactive”.
Turning to `COc1ccc2nc(NC(=O)C3CCN(S(=O)(=O)c4cccnc4)CC3)sc2c1`, the “activity change, negative = inhibition” value is “inactive”.
Same read-out and setting: next, `COc1ccc(OC)c(CNC(=O)c2sc3ccccc3c2Cl)c1`: “inactive”; `COc1ccc2nc(NC(=O)CN(C)S(=O)(=O)c3ccc(F)cc3)sc2c1`: “inactive”.
For `Clc1ccc(CSc2nc(Nc3ccc4c(c3)OCO4)c3ccccc3n2)cc1`, the “activity change, negative = inhibition” value was “inactive”.
The same measure, in the same setting: next, `Cc1ccc(S(=O)(=O)N(C)CC(=O)Nc2nc3ccc(Cl)cc3s2)cc1C`: “inactive”; `CN(CC(=O)Nc1nc2ccc(Cl)cc2s1)S(=O)(=O)c1ccc(Cl)cc1`: “inactive”.
Same read-out and setting: with `COc1ccc2c(Cl)c(C(=O)NCc3cccnc3)sc2c1` the entry was “inactive”; with `CCOc1ccc2nc(NC(=O)COc3ccc(Cl)c(OC)c3)sc2c1`, “inactive”; with `CCOc1ccc2nc(NC(=O)C3CCCN(S(=O)(=O)c4cccc5cccnc45)C3)sc2c1` (stereo not given), “inactive”.
With `COc1ccc2nc(NC(=O)C3CCCN(S(=O)(=O)c4cccc5nonc45)C3)sc2c1` (stereo not given), the “activity change, negative = inhibition” value was “inactive”.
Still for that read-out and setting: with `COc1ccc2c(Cl)c(C(=O)NCc3ccccc3)sc2c1` the entry was “inactive”.
The same measure, in the same setting: next, `COc1ccc(C2=Nn3c(nnc3-c3ccncc3)SC2)cc1`: “inactive”; `COc1ccc2nc(NC(=O)C3CCN(S(=O)(=O)c4ccc(C)cc4)CC3)sc2c1`: “inactive”.
Turning to `COc1ccc(C2=Nn3c(nnc3-c3cccnc3)SC2)cc1OC`, the “activity change, negative = inhibition” value was “inactive”.

Usually AC50 stands for the midpoint of the concentration-response curve, whichever way the signal moves.
